Results as given in PMC10650955, “α-Aminophosphonate inhibitors of metallo-β-lactamases NDM-1 and VIM-2” (RSC Medicinal Chemistry, 2023).
Structures can show the parent of a compound that is named as a salt.

Assays:
15N-labelled VIM-2 = target: T1, 15N-labelled VIM-2 (Escherichia coli, UniProt Q5U7L7); assay: 1H,15N HSQC NMR chemical shift perturbation titration, VIM-2; type: binding; conditions: VIM-2 Kd, 0-16 equiv. ligand, pH 7.0, 310 K
T1 construct: made in house
Protocol: (§1) Solution NMR spectroscopy is a powerful tool to assess protein–ligand interactions under close to physiological conditions.[47] We, therefore, performed NMR chemical shift perturbation (CSP, for details, see section S8, ESI ^†) experiments to identify the amino acid residues of NDM-1 and VIM-2 that are involved in inhibitor binding, making use of the previously published protein assignments.[48,49] Titrations were conducted using ^15N-labelled proteins with 0, 0.5, 1, 2, 4, 8, and 16 equiv. of 5 inhibitors for NDM-1 and of 7 inhibitors for VIM-2.
(§2) For the titrations, ^15N-labelled NDM-1 and ^15N-labelled VIM-2 (250 μM), and titrated ligands (0.5 equiv. in 1 μL) were prepared in the same buffer as the protein (20 mM KPO4, 0.1 mM ZnCl2, pH 7.0 with 10% D2O and 2.5% DMSO-d6). ^1H,^15N HSQC spectra were acquired with 128 × 1024 complex points (F1 × F2) and spectral width of 9090 × 2740 Hz on ^15N-labeled NDM-1/VIM-2 and with every titration step up to 1 : 16 ratio between protein : ligand (0, 0.5, 1, 2, 4, 8, and 16 equiv. of ligand). All experiments were recorded on a Bruker 600 MHz spectrometer at 310 K equipped with a 5 mm TCI cryogenic probe. The NMR data were processed on the MestReNova software with the Mnova Binding plugin. The weighted average chemical shift perturbations (CSP) for the backbone amides were calculated from the observed chemical shift differences in the proton and nitrogen dimensions using the equation (chemical shift scaling factors: FH = 1, FN = 0.156) CSP = Δδ1H,15N = [drawing 13] .
(§3) 7. Chemical shift perturbation histograms
(§4) Chemical shift perturbation was calculated according equation (1) 2
(§5) CSP = Δδ(1H,15N) = √(Δδ1H2 + (1⁄R × Δδ15N2) Rscale = 6.5 (1)
(§6) Where Δδ1H is the chemical shift change for proton dimension, Δδ15N is the chemical shift change for nitrogen dimension, Rscale is a
(§7) The chemical shift perturbations (CSP) were classified as significant (SSP) when the observed Δδ(1H,15N) was greater than the population
(§8) mean plus the standard deviation (µ+1σ) – solid line; (µ+2σ) – dashed line, and (µ+3σ) – dashed line.
(§9) Further on, Kd was calculated according: 3
(§10) ([P]+[L]+Kd)− √([P]+[L]+Kd)2−4[P][L]
(§11) ΔδmaxΔδobs = Δδmax 2[P] (2)
(§12) Where Kd is the dissociation constant, [P] and [L] are protein and ligand concentrations, respectively. Δδmax were estimated in
(§13) MestReNova by extrapolation of the obser ved chemical shift differences Δδobs.

VIM-2 = target: T2, VIM-2 (Escherichia coli, UniProt Q5U7L7); assay: Dose rate inhibition studies for IC50 determination, VIM-2 enzymatic assay; type: biochemical; conditions: Enzyme IC50 VIM-2, 0.1 nM VIM-2, 100 μM ZnCl2, nitrocefin substrate, inhibitor 0-800 μM, 3 parallel measurements; N.I. = no enzyme inhibitory activity observed
T2 construct: made in house
Protocol: (§14) The […] synthesized compounds 5a–l were tested for their inhibitory activities against NDM-1, VIM-2 (Table 1), and GIM-1 in an in vitro enzymatic assay (ESI ^†).[41] The inhibitory activity was measured using enzyme concentrations of 0.1 nM VIM-2, 10 nM NDM-1 or 1 nM GIM-1, with an excess Zn(II) (100 μM, see Experimental methods), with inhibitor compounds with concentrations from 0 to 800 μM. Each data point was measured in triplicates. […] This is in line with previous reports.[42,43]
(§15) A 100 μl solution with buffer (50 mM HEPES (pH 7.2), 100 μM ZnCl2, 2.5% DMSO), purified enzyme (0.1 nM VIM-2, 10 nM NDM-1 or 1 nM GIM-1) and 800–0 μM inhibitor was incubated in a 96 well plate at 25 °C for 5 min. In addition, the enzyme buffer contained 400 μg ml^−1 bovine serum albumin (BSA) to prevent protein unfolding and loss of activity due to low concentrations.[67,68] 100 μM of the reporter substrate nitrocefin (VIM-2, GIM-1) or imipenem (NDM-1) was added to the enzyme–inhibitor solution and the increase in absorbance at 482 nm (nitrocefin) or 300 nm (imipenem) was recorded on a Spectramax M4 spectrophotometer (Molecular Devices). Each data point was performed in triplicates and the initial velocity for each inhibitor concentration was analyzed by a log [inhibitor] vs. response curve fitting to calculate IC50 in GraphPad Prism 9.2 software.

NDM-1 = target: T3, NDM-1 (Klebsiella pneumoniae, UniProt C7C422); assay: Dose rate inhibition studies for IC50 determination, NDM-1 enzymatic assay; type: biochemical; conditions: Enzyme IC50 NDM-1, 10 nM NDM-1, 100 μM ZnCl2, imipenem substrate, inhibitor 0-800 μM, 3 parallel measurements; N.I. = no enzyme inhibitory activity observed
T3 construct: made in house
T3 sequence (C7C422 29-270 limits assumed): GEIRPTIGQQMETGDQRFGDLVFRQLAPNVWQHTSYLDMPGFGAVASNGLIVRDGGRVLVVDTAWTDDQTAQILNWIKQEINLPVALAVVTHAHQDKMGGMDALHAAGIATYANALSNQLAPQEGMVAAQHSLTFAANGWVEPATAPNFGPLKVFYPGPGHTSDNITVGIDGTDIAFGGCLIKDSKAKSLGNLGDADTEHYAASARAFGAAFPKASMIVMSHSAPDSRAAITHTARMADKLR
Protocol: as §14, §15

15N-labelled NDM-1 = target: T4, 15N-labelled NDM-1 (Klebsiella pneumoniae, UniProt C7C422); assay: 1H,15N HSQC NMR chemical shift perturbation titration, NDM-1; type: binding
T4 construct: made in house
T4 sequence (C7C422 29-270 limits assumed): as above
Protocol: as §1, §2, §3, §4, §5, §6, §7, §8, §9, §10, §11, §12, §13

[1] = Estimated binding constant (Kd), residue 070F, Table S5, per-residue fit, NDM-1 070F
[2] = Estimated binding constant (Kd), residue 108E, Table S5, per-residue fit, NDM-1 108E
[3] = Estimated binding constant (Kd), residue 119T, Table S5, per-residue fit, NDM-1 119T
[4] = Estimated binding constant (Kd), residue 124D, Table S5, per-residue fit, NDM-1 124D
[5] = Estimated binding constant (Kd), residue 127G, Table S5, per-residue fit, NDM-1 127G
[6] = Estimated binding constant (Kd), residue 152E, Table S5, per-residue fit, NDM-1 152E
[7] = Estimated binding constant (Kd), residue 159H, Table S5, per-residue fit, NDM-1 159H
[8] = Estimated binding constant (Kd), residue 160S, Table S5, per-residue fit, NDM-1 160S
[9] = Estimated binding constant (Kd), residue 194I, Table S5, per-residue fit, NDM-1 194I
[10] = Estimated binding constant (Kd), residue 197G, Table S5, per-residue fit, NDM-1 197G
[11] = Estimated binding constant (Kd), residue 205F, Table S5, per-residue fit, NDM-1 205F
[12] = Estimated binding constant (Kd), residue 206G, Table S5, per-residue fit, NDM-1 206G
[13] = Estimated binding constant (Kd), residue 214K, Table S5, per-residue fit, NDM-1 214K
[14] = Estimated binding constant (Kd), residue 217S, Table S5, per-residue fit, NDM-1 217S
[15] = Estimated binding constant (Kd), residue 228H, Table S5, per-residue fit, NDM-1 228H
[16] = Estimated binding constant (Kd), residue 229Y, Table S5, per-residue fit, NDM-1 229Y
[17] = Estimated binding constant (Kd), residue 230A, Table S5, per-residue fit, NDM-1 230A
[18] = Estimated binding constant (Kd), residue 232S, Table S5, per-residue fit, NDM-1 232S
[19] = Estimated binding constant (Kd), residue 248M, Table S5, per-residue fit, NDM-1 248M
[20] = Estimated binding constant (Kd), residue 249S, Table S5, per-residue fit, NDM-1 249S
[21] = Estimated binding constant (Kd), residue 251S, Table S5, per-residue fit, NDM-1 251S
[22] = Estimated binding constant (Kd), residue 254D, Table S5, per-residue fit, NDM-1 254D
[23] = Estimated binding constant (Kd), residue 255S, Table S5, per-residue fit, NDM-1 255S
[24] = NDM-1 Kd, NMR chemical shift perturbation, 0-16 equiv. ligand, pH 7.0, 310 K

| SMILES | Kd (15N-labelled VIM-2) [mM] | IC50 (VIM-2) [mM] | IC50 (NDM-1) [mM] | Kd (15N-labelled NDM-1; [1]) [mM] | Kd (15N-labelled NDM-1; [2]) [mM] | Kd (15N-labelled NDM-1; [3]) [mM] | Kd (15N-labelled NDM-1; [4]) [mM] | Kd (15N-labelled NDM-1; [5]) [mM] | Kd (15N-labelled NDM-1; [6]) [mM] | Kd (15N-labelled NDM-1; [7]) [mM] | Kd (15N-labelled NDM-1; [8]) [mM] | Kd (15N-labelled NDM-1; [9]) [mM] | Kd (15N-labelled NDM-1; [10]) [mM] | Kd (15N-labelled NDM-1; [11]) [mM] | Kd (15N-labelled NDM-1; [12]) [mM] | Kd (15N-labelled NDM-1; [13]) [mM] | Kd (15N-labelled NDM-1; [14]) [mM] | Kd (15N-labelled NDM-1; [15]) [mM] | Kd (15N-labelled NDM-1; [16]) [mM] | Kd (15N-labelled NDM-1; [17]) [mM] | also measured |
| --- | --- | --- | --- | --- | --- | --- | --- | --- | --- | --- | --- | --- | --- | --- | --- | --- | --- | --- | --- | --- | --- |
| O=C(Cc1cccs1)NC(C1CCCCN1)P(=O)(O)O (stereo not drawn) [Compound 5i-2, (Piperidin-2-yl(2-(thiophen-2-yl)acetamido)methyl)phos-phonic acid hydrochloride] | 1.1 ± 0.1 | 0.328 ± 0.116 | 0.271 ± 0.034 | 4.9 | 2.03 | 26.4 | 14.1 | 1.76 | 1.18 | 8.3 | 17.6 | 2.49 | 15.2 | 6.84 | 6.81 | 0.78 | 16.4 | 10.1 | 2.3 | 2.71 | Kd (15N-labelled NDM-1; Estimated binding constant (Kd), residue 211K, Table S5, per-residue fit, NDM-1 211K): 17.1 mM; Kd (15N-labelled NDM-1; [18]): 5.57 mM; Kd (15N-labelled NDM-1; [19]): 2.58 mM; Kd (15N-labelled NDM-1; [20]): 8.45 mM; Kd (15N-labelled NDM-1; [21]): 3.38 mM; Kd (15N-labelled NDM-1; [22]): 5.01 mM; Kd (15N-labelled NDM-1; [23]): 1.66 mM; Kd (15N-labelled NDM-1; Estimated binding constant (Kd), residue 263A_266A, Table S5, per-residue fit, NDM-1 263A_266A): 0.69 mM; Kd (15N-labelled NDM-1; [24]): 1.4 ± 0.1 mM |
| O=C(Cc1ccsc1)NC(C1CCCCN1)P(=O)(O)O (stereo not drawn) [Compound 5j-1, (Piperidin-2-yl(2-(thiophen-3-yl)acetamido)methyl)phos-phonic acid hydrochloride] | 0.9 ± 0.1 | 0.319 ± 0.069 | 0.506 ± 0.333 | 2.54 | 3.54 | 7.97 | 12.4 | 12.4 | 32.9 | 8.39 | 15.7 | 6.1 | 3.05 | 8.41 | 7.72 | 1.96 | 8.15 | 4.94 | 1.31 | 8.81 | Kd (15N-labelled NDM-1; Estimated binding constant (Kd), residue 091T, Table S5, per-residue fit, NDM-1 091T): 2.11 mM; Kd (15N-labelled NDM-1; Estimated binding constant (Kd), residue 133H_225D, Table S5, per-residue fit, NDM-1 133H_225D): 1.42 mM; Kd (15N-labelled NDM-1; Estimated binding constant (Kd), residue 149A, Table S5, per-residue fit, NDM-1 149A): 3.18 mM; Kd (15N-labelled NDM-1; Estimated binding constant (Kd), residue 188G, Table S5, per-residue fit, NDM-1 188G): 6.63 mM; Kd (15N-labelled NDM-1; [18]): 21.3 mM; Kd (15N-labelled NDM-1; [19]): 8.64 mM; Kd (15N-labelled NDM-1; [20]): 34 mM; Kd (15N-labelled NDM-1; [21]): 12.3 mM; Kd (15N-labelled NDM-1; [22]): 9.29 mM; Kd (15N-labelled NDM-1; [23]): 18.6 mM; Kd (15N-labelled NDM-1; [24]): 2.2 ± 0.2 mM |
